Source: patent publication US20140243332A1, “METHODS OF TREATING CANCERS CHARACTERIZED BY ABERRENT ROS1 ACTIVITY” (Oregon Health & Science University, priority 2013, published 2014)

How the values were obtained:
SLC-ROS [1] = biological target: T1, SLC-ROS (Homo sapiens, UniProt P08922); experiment: Immunoblot of Ba/F3 SLC-ROS lysates; assay type: cell-based; set-up: SLC34A2 N-terminal portion, fusion partner; expressed in transfected cells; host or cells: Ba/F3 (A15), retroviral pMIG; the other entry of the earlier key: SLC34A2 (O95436, Sodium-dependent phosphate transport protein 2B); details: Ba/F3 SLC-ROS cells, increasing amounts, immunoblot FIG. 1C
Method: FIG. 1C is an image of an immunoblot of lysates of Ba/F3 FIG-ROS and Ba/F3 SLC-ROS and the indicated downstream effectors after treatment with the indicated compounds. Images shown are representative of three independent experiments.
Ba/F3 FIG-ROS, Ba/F3 SLC-ROS, HCC78 and mCC cell lines were treated with the indicated concentration of inhibitors for 1-2 hours. […] The protein content of the cell lysates was determined and lysates were either used for immunoprecipitation where indicated or extracted with SDS Sample buffer for 15 minutes at 80° C. Proteins were transferred to Immobilon-FL membranes and immunoblotted with antibodies specific for phospho-ROS1 (Cell Signaling Technology (CST) #3078), total ROS1 (CST #3266), phopsho-Shp2 (CST #3751), total Shpt (CST #3752), phospho-Stat3 (CST #9145), total Stat3 (CST #4904), phospho-Erk1/2 (CST #9101), total Erk2 (Santa Cruz #SC-1647), phospho-S6 (CST #4858), total S6 (CST #2216), phospho-Src (CST #2105), total Src (CST #2110), α-tubulin (Sigma T6199), or β-actin (Sigma A1978) as indicated. Images of the blots were generated by the LI-COR Odyssey® imaging system, following the manufacturer's protocol for immunoblot detection with use of IR-dye conjugated secondary antibodies.

FIG-ROS tumors = experiment: In vivo treatment of mice bearing subcutaneous FIG-ROS cholangiocarcinoma tumors; details: 25 mg/kg oral gavage once daily, 9 days, immunodeficient mice; foretinib p<0.0001 for Lines 4 and 6
Method: Mouse chorangiocarcinoma cell lines expressing either FIG-ROS or shPten were subcutaneously injected into 11 week old female immune-deficient mice. […] Caliper measurements were taken at the time of treatment initiation and 24 hrs after administration of the last dose. Data in waterfall plots is calculated as follows: ((tumor volume Tend/tumor volume T0)−1). Caliper measurements of tumors were taken at T0 and Tend. Tumor volume is calculated as: 0.5*L*Ŵ2(L>W).
Tumors were formed by subcutaneous injection of the murine cholangiocarcinoma cell lines described above in the flanks of immunodeficient mice. […] Caliper measurements were taken at the time of treatment initiation (Ti) and 24 h after administration of the last dose (Tend).

HCC78 cells [2] = experiment: Cell viability (MTS) assay, HCC78; assay type: cell-based, human; details: Homo sapiens, 72 hour exposure, read-out: IC50 HCC78 cell growth
Method: (§1) The parental Ba/F3 cell line was cultured in RPMI 1640 medium with 10% FBS, L-glutamine, penicillin/streptomycin and 15% WEHI-conditioned media. Ba/F3 cell lines were maintained at densities of 0.5×10^6 to 1.5×10^6 per ml of media. FIG-ROS and SLC-ROS Ba/F3 lines were created by infecting the parental Ba/F3 with retrovirus expressing either human FIG-ROS-S (indicated FIG-ROS herein) or SLC-ROS-S (indicated SLC-ROS herein). Stable transfectant lines were sorted for GFP expression on a FACS Aria® flow cytometer. Cells were counted daily using Guava ViaCount® reagent and Guava Personal Cell Analysis® flow cytometer. […] Early passage NIH3T3 cells were infected with retrovirus expressing either FIG-ROS or SLC-ROS and sorted for GFP expression as described above for Ba/F3 cells. HCC78 cells were cultured in RPMI 1640 medium with 10% FBS, L-glutamine, and penicillin/streptomycin. This media is referred to as RPMI-10% FBS herein.

HCC4011 cells = experiment: Cell viability assay, HCC4011; assay type: cell-based, human; details: HCC4011 cells (activated EGFR), FIG. 6B
Method: (§2) IC50 was determined from non-linear regression curve fit analysis of the dose response curves.

SLC-ROS [3] = biological target: T1, SLC-ROS; experiment: Immunoblot of NIH3T3 SLC-ROS lysates; assay type: cell-based; set-up: SLC34A2 N-terminal portion, fusion partner; expressed in transfected cells; host or cells: Ba/F3 (A15) and NIH3T3 (A25), retroviral pMIG; the other entry of the earlier key: SLC34A2 (O95436, Sodium-dependent phosphate transport protein 2B); details: NIH3T3 SLC-ROS cells, 1 hour, at lower doses than crizotinib
Method: as §1

[4] = biological target: Ba/F3 FIG-ROS G1971E cells (Homo sapiens, UniProt P08922, G1971E, cells depend on it); experiment: Cell viability assay, Ba/F3 FIG-ROS G1971E; assay type: cell-based; details: Table 3, Ba/F3 FIG-ROS G1971E; nM; read-out: IC50 (the source's name)
Method: (§3) Cell lines were distributed in 96-well plates and incubated with the indicated concentrations of inhibitor for 72 hours. […] Ba/F3 cell lines were plated at 4×10^3 cells/well. HCC78 and mCC cell lines were plated at 1.5×10^3 cells/well. All cell types were seeded in a final volume of 80 microliters. A 20 microliter volume of five-fold concentrated inhibitor media was added. Cell proliferation was measured using a […] viability assay (CellTiter96 Aqueous One® Solution; Promega). A BioTek Synergy 2® plate reader was used to read the absorbance at 490 nm at 30 minutes and 1 hour after addition of MTS. To facilitate comparison between experiments, the raw MTS absorbance of vehicle (0.1% DMSO) treated cells was set to 1 and absorbance from inhibitor treated wells was normalized to the vehicle treated value. […] Data were normalized using Microsoft Excel® and further non-linear regression curve fit analysis of the normalized data for determination of IC50 was performed using Graphpad Prism® software.
(§4) The FIG-ROS-S fusion gene was synthesized using the GeneArt® service. FIG-ROS-S is denoted as FIG-ROS herein.

PC9 cells = experiment: Cell viability assay, PC9; assay type: cell-based, human; details: PC9 cells (activated EGFR), FIG. 6B
Method: as §2

[5] = biological target: Ba/F3 FIG-ROS E1935G cells (Homo sapiens, UniProt P08922, E1935G, cells depend on it); experiment: Cell viability assay, Ba/F3 FIG-ROS E1935G; assay type: cell-based; details: Table 3, Ba/F3 FIG-ROS E1935G; nM; read-out: IC50 (the source's name)
Method: as §3, §4

HCC78 cells [6] = experiment: HCC78 colony formation; assay type: cell-based, human; details: 10 days, FIG. 1F
Text: FIG. 1F bottom panel is a bar graph depicting the number of colonies observed on the plates from FIG. 1F top panel. Where indicated, **=p<0.01 and ***=p<0.001 by Student's t-test.

[7] = biological target: Ba/F3 CD74-ROS G2032R mutant cells (Homo sapiens, UniProt P08922, G2032R, cells depend on it); experiment: Cell growth assay, Ba/F3 CD74-ROS G2032R; assay type: cell-based; details: 72 hour exposure, read-out: IC50 (the source's name)
Text: Data are shown as normalized to vehicle-treated cells. The values are means±SEM from three independent experiments performed in triplicate.

## COc1cc2c(Oc3ccc(NC(=O)C4(C(=O)Nc5ccc(F)cc5)CC4)cc3F)ccnc2cc1OCCCN1CCOCC1 [foretinib, N1′-[3-fluoro-4-[[6-methoxy-7-(3-morpholinopropoxy)-4-quinolyl]oxy]phenyl]-N1-(4-fluorophenyl)cyclopropane-1,1-dicarboxamide]
SLC-ROS [1]
  autophosphorylation of SLC-ROS and ROS1-driven signaling (phospho-Shp2, phospho-ERK1/2): dose dependent decrease
FIG-ROS tumors
  FIG-ROS tumor volume: dramatically and significantly reduced
HCC78 cells [2]
  IC50: 425 nM
HCC4011 cells
  sensitivity of cell growth: relatively insensitive
SLC-ROS [3]
  SLC-ROS phosphorylation: strongly suppressed
[4]
  GI50: 8.69 nM
PC9 cells
  sensitivity of cell growth: relatively insensitive
[5]
  GI50: 6.6 nM
HCC78 cells [6]
  HCC78 colony formation: more potently inhibited by foretinib than crizotinib
[7]
  GI50: 50 nM
